Earlier results on 1 compound are cited in patent publication US20260201030A1, “ANTIBODY, ANTIBODY-DRUG CONJUGATE THEREOF AND USE THEREOF” (EVOPOINT BIOSCIENCES CO., LTD., priority 2021, published 2026).

For the data set the following is noted: FL118 alone; cited from earlier work.

As for `CC[C@@]1(O)C(=O)OCc2c1cc1n(c2=O)Cc2cc3cc4c(cc3nc2-1)OCO4` [FL118, (20S)-10,11-methylenedioxy camptothecin], the water solubility result is “extremely poor water solubility”.
